In US20100105707A1, “METHOD OF TREATING OR PREVENTING OXIDATIVE STRESS-RELATED DISEASE” (The United States of America, priority 2006, published 2010):
≈ marks a conversion by molar mass, not a printed value.

Columns and labels:
[1] = Water solubility in cold water; assay type: physicochemical
Procedure: Commercially available derivatives are obtained from Sigma-Aldrich (St. Louis, Mo.). The methods used for the synthesis of methyl- and sulfur-derivatives of uric acid are similar to those described previously (Beaman et al., J. Org. Chem., 27, 986-990 (1962) and Maruyama et al., Nucleosides, Nucleotides, Nucleic Acids, 19, 1193-1203 (2000)) and structures are confirmed by ^13C nuclear magnetic resonance (NMR) and ultra-violet (UV) spectral analyses. Uric acid analogs are assayed by high performance liquid chromatography (HPLC) and found to be of >97% purity.

[2] = test system: cultured hippocampal neurons; assay: Oxygen and glucose deprivation (OGD) of cultured hippocampal neurons; assay type: cell-based, rat; conditions: compared to neurons in control cultures; FIG. 2
Procedure: FIG. 2 illustrates that compounds of formula (I) protect cultured hippocampal neurons against ischemia-like conditions in an embodiment of the invention. Neuronal survival is quantified and values are the mean and SEM (n=8-10 cultures). *p<0.05 compared to the vehicle/OGD cultures. Synaptosomes are prepared from the cerebral cortex of 2-3 month-old adult male Sprague-Dawley rats and are cryopreserved using methods described previously (Begley et al., Brain Res. Protoc., 3, 76-82 (1998)). After thawing, cryopreserved synaptosomes are washed twice with Locke's buffer and plated in 24-well plates at a protein concentration of 250 μg per well. After a 30 min period to permit attachment of the synaptosomes to the substrate, synaptomoses are incubated for 1 h with compounds of formula (I) (1-10 μM), and then exposed for 4 h to freshly prepared 50 μM Fe^2+ (FeSO4). After an additional 30 min incubation in the presence of 10 μM dihydrorhodamine 123 (DHR), a probe for ROS which fluoresces when oxidized (Keller et al., J. Neurochem., 69, 273-284 (1997)), the synaptosomes are washed twice with Locke's buffer and levels of fluorescence are quantified using a fluorescence plate reader (488 nm excitation and 510 emission wavelengths). Fluorescence values for wells exposed to experimental treatments are expressed as a percentage of the mean value for untreated control wells. […] Methods for preparation and maintenance of cultures of PC12 cells and primary embryonic rat hippocampal neurons have been described previously (Furukawa et al., J. Neurosci., 17, 8178-8186 (1997) and Chan et al., J. Biol. Chem., 279, 28733-28743 (2004)). Cells are plated into polyethylenimine-coated plastic 96-well culture plates containing Neurobasal medium with B27 supplements. Experiments are performed in 7-8 day-old cultures (hippocampal neurons) or Dulbecco's modified eagle's medium (DMEM) with 10% fetal bovine serum (PC12 cells). […] Cell viability is quantified by counting viable neurons in premarked microscope fields prior to and following experimental treatment and then calculating percent survival.

skin wound = assay: Punch biopsy wound healing model; assay type: in vivo, C57BL/6 mice; conditions: single topical dose at time of wounding; on average; saline control greater than 13 days
Excerpt: A defined wound is created with a 4 mm Accuderm human punch biopsy kit (Accuderm, Ft Lauderdale, Fla.) in C57BL/6 mice. Specifically, the loose skin on the back of a mouse was brought together and, under anesthetic, a single punch was made through either side to create two wounds through the skin alone—without affecting underlying tissue. Immediately post-wounding, the wounds are either treated topically with normal saline (to serve as the non-treated control group) or with a compound of formula (I). Each day the wounds are digitally photographed and wound areas are determined by computer integration of the photographs. Wound area at the time of wounding (day 0) is arbitrarily set to a relative value of 1 for all wounds; such that subsequent wound areas are converted to relative wound areas by dividing the wound area at day n by the wound area at day zero.

[3] = Pharmacokinetics: plasma and brain levels after intravenous administration; assay type: in vivo, C57BL/6 mice; conditions: mice
Procedure: Mice are administered intravenously 10 mg/kg ([…]) of uric acid as a reference compound and equimolar doses of its analogs (sUA4-2,6,8 trithio uric acid, 12.9 mg/kg; mUA2-1,7 dimethyl uric acid, 11.7 mg/kg; sUA2-6,8 dithio uric acid, 11.9 mg/kg). Three month-old male C57BL/6 mice are injected with a compound and are euthanized 15, 30, 60 or 120 min later (1 mouse/time point/compound). Blood and brain tissues are rapidly removed, frozen on dry ice and kept at −80° C. before quantification of uric acid analogs. Plasma and cerebral cortical tissues are extracted in 10 volumes of 0.5 M perchloric acid and 1 mM ethylenediamine tetraacetic acid (EDTA). Levels of uric acid analogs in the extracts are quantified by HPLC methods employing a 25 cm RP C18 column, 25 mM KH2PO4 buffer (pH=4.6) with 1 ml/min flow rate and UV diode array detection.
Mice that are administered mUA2, sUA2 or sUA4 intravenously are euthanized at increasing time points (15, 30, 60 and 120 min) and levels of the compounds in plasma and brain tissue are measured.

[4] = test system: mouse model of focal ischemic stroke; assay: Focal cerebral ischemia-reperfusion (middle cerebral artery occlusion) model; assay type: in vivo, C57BL/6 mice; conditions: administered 1 h after ischemia onset
Procedure: (§1) FIG. 4 illustrates that a compound of formula (I) improves functional outcome (e.g., ambulation) and reduces brain damage in a mouse model of focal ischemic stroke in an embodiment of the invention. In FIG. 4A neurological function is scored at 24, 48 and 72 hours post-stroke. In FIG. 4B infarct volume is quantified at 72 hours post-stroke. Values are the mean and SEM (n=8-12 mice). *p<0.001 compared to sham. +p<0.01 compared to vehicle.
as §1, with “FIG. 5” for “FIG. 4”, “that compounds” for “that a compound”, “(I) improve” for “(I) improves”, “outcome” for “outcome (e.g., ambulation)”, “FIG. 5A,” for “FIG. 4A”, “FIG. 5B,” for “FIG. 4B”
Three month-old male C57BL/6 mice are maintained on a 12 h light/12 h dark cycle with continuous access to food and water. The method for subjecting the mice to middle cerebral artery occlusion-reperfusion has been described previously (Arumugam et al., Am. J. Physiol. Heart Circ. Physiol., 287, H2555-2560 (2004)). Mice are anesthetized with isofluorane, a midline incision is made in the neck, and the left external carotid and pterygopalatine arteries are isolated and ligated with 5-0 silk thread. The internal carotid artery (ICA) is occluded at the peripheral site of the bifurcation of the internal carotid artery and the pterygopalatine artery with a small clip and the common carotid artery is ligated with 5-0 silk thread. The external carotid artery is cut, and a 6-0 nylon monofilament with a tip that is blunted (0.2-0.22 mm) with a coagulator is inserted into the external carotid artery. After the clip at the ICA is removed, the nylon thread is advanced into the middle cerebral artery until light resistance is felt. The nylon thread and the common carotid artery ligature are removed after 1 h of occlusion to initiate reperfusion. In the sham group, these arteries are visualized but not disturbed. Mice are administered either uric acid analogs of formula (I) or vehicle (dimethylsulfoxide) by infusion into the femoral vein (10 μl infused over a 2 min period) either 30 min prior to or 60 min after the onset of middle cerebral artery (MCA) occlusion. In a separate set of experiments anesthetized animals from all groups (4-6 mice per group) undergo cerebral blood flow (CBF) measurements using a laser Doppler perfusion monitor. All blood flow measurements are conducted with the mouse fixed in a plastic frame with the probe placed in the region of cerebral cortex perfused by the middle cerebral artery. These procedures are approved by the National Institute on Aging Animal Care and Use Committee.
The functional consequences of focal cerebral ischemia-reperfusion injury are evaluated by using a five-point neurological deficit score (0, no deficit; 1, failure to extend right paw; 2, circling to the right; 3, falling to the right; and 4, unable to walk spontaneously) and are assessed in a blinded fashion. At 72 h of reperfusion, the mice are killed with a lethal dose of isofluorane. The brains are immediately removed and placed into PBS (4° C.) for 15 min, and 2-mm coronal sections are cut with a tissue cutter. The brain sections are stained with 2% 2,3,5-triphenyltetrazolium chloride in phosphate buffer at 37° C. for 15 min. The stained sections are photographed, and the digitized images are used for analysis. The borders of the infarct in each brain slice are outlined and the area quantified using a NIH image 6.1 software. To correct for brain swelling, the infarct area is determined by subtracting the area of undamaged tissue in the left hemisphere from that of the intact contralateral hemisphere. Infarct volume is calculated by integration of infarct areas for all slices of each brain.

## O=c1[nH]c(=S)c2[nH]c(=S)[nH]c2[nH]1 [sUA2, 6,8 dithio uric acid]
[1]
  solubility: 2000 µg/mL (≈ 9.99 mM)
[2]
  resistance to OGD induced death: significantly more resistant
Skin wound
  time to wound closure post wounding: 8 days
[3]; male, C57BL/6, mouse, brain (cerebral cortical tissue) / plasma, early time points (15-30 min), read-out: brain tissue concentration as percentage of plasma concentration
  Kp: ~0.1
[3]; equimolar to 10 mg/kg uric acid, 15, 30, 60 and 120 min
  detection in the brain: detected in the brain at all time points examined
[3]; through the 120 min time point
  brain concentration time course versus plasma: remain elevated while plasma concentrations decrease progressively
[4]; FIG. 5A
  functional outcome (neurological deficit score): significantly improve functional outcome
[4]; FIG. 5B
  brain damage: decrease brain damage
